Results published in a melting point compilation (Tetko et al.).

| SMILES | melting point [°C] |
| --- | --- |
| NC(=O)c1cncc(Cl)n1 | 166 to 168 |
| N#Cc1ccc(C=C2CCn3c2nc2cc(C(=O)O)ccc2c3=O)cc1 | 300 to 302 |
| Cc1oc(C(N)=O)cc1C(=O)CCl | 197 to 199 |
| O=C(O)CSCc1cccc(Br)c1 | 70 to 80 |
| CNc1cnc(Cl)cc1C(=O)O | 279 to 281 |
| CCCOc1ccc(C=O)cc1OCC | 36 to 38 |
| Cc1nn(C)c(-n2cncn2)c1N | 96 to 98 |
| Cc1ccc(C)c(S(=O)(=O)N2CCN(C(=O)CCC(=O)O)CC2)c1 | 143 to 145 |
| CC(C)(C)NS(=O)(=O)c1ccc(NN)nc1 | 124 to 126 |
| CCN(CC)C(=O)c1ccc(S(=O)(=O)Cl)cc1 | 59 to 61 |
| C=CCNc1ncc(C(=O)O)s1 | 169 to 171 |
| O=C(COc1cccc2ccccc12)N1CCNCC1 | 141 to 143 |
| COc1ccc(S(=O)(=O)Nc2cccc(CN)c2)cc1 | 125 to 127 |
| O=C(O)Cc1ccc(C(F)(F)F)cc1[N+](=O)[O-] | 145 to 147 |
| COc1cc(CC(=O)O)ccc1C | 74 to 76 |
| O=C(O)c1ccc(Br)c(O)c1 | 219 to 221 |
| Cc1cc(C(=O)O)ccc1NC(=O)c1cccs1 | 199 to 201 |
| COCCOc1ccc(C=O)cc1OC | 67 to 69 |
| CC1CSC(=S)N1 (stereo unspecified) | 94 to 96 |
| CN(c1ccccc1)c1ccc(C=O)cc1[N+](=O)[O-] | 95 to 97 |
| Nc1cccc(CN2CCOCC2)n1 | 129 to 131 |
| CC(=O)Nc1cccc2c1CCCN2 | 144 to 146 |
| CC[C@@H](CO)NCc1ccccc1 | 73 to 75 |
| CN1C(=O)CCC(C(=O)O)C1c1cccc(Cl)c1 (stereo unspecified) | 182 to 184 |

| SMILES | melting point [°C] |
| --- | --- |
| CC(C)c1n[nH]c(-c2ccccc2N)n1 | 125 to 127 |
| O=C(O)CCn1cc[nH]c(=O)c1=O | 239 to 241 |
| Clc1ccc2cc(Br)ccc2n1 | 159 to 161 |
| Cc1cc(C(=O)O)c(C)n1-c1ccccc1Br | 164 to 166 |
| O=C(CN1CCNCC1)N1CCc2ccccc21 | 139 to 141 |
| NC(=S)c1ncc(N)s1 | 191 to 193 |
| Nc1cccc(S(=O)(=O)Nc2ccccc2F)c1 | 195 to 197 |
| CC(O)c1ccc2c(c1)NC(=O)CO2 (stereo unspecified) | 137 to 139 |
| O=Cc1cn(Cc2cccnc2)nn1 | 97 to 99 |
| N=C1NS(=O)(=O)Cc2ccccc21 | 264 to 266 |
| N#Cc1cc(C#N)c(S)nc1N | 280 to 282 |
| CC(C)c1ccc(-c2noc(CCl)n2)cc1 | 50 to 52 |
| N#Cc1ccc(OCC2CO2)cc1 (stereo unspecified) | 64 to 66 |
| O=C(O)C1CCN(c2ccc(Cl)cc2)C1=O (stereo unspecified) | 158 to 160 |
| Sc1nc(/C=C/c2ccccc2)n[nH]1 | 277 to 279 |
| N#Cc1ccc(Cl)cc1NCc1ccccn1 | 100 to 102 |
| CC(CC(=O)O)C(=O)c1ccc(Cl)cc1 (stereo unspecified) | 73 to 75 |
| Cc1nc(NN)c2cc(-c3ccccc3)sc2n1 | 163 to 165 |
| O=C(O)CCc1ccc([N+](=O)[O-])cc1[N+](=O)[O-] | 124 to 126 |
| CCN(CC)S(=O)(=O)c1ccc(O)c(C(=O)O)c1 | 129 to 131 |
| O=C(O)c1oc2ccccc2c1Cn1cccn1 | 226 to 228 |
| CCOC(=O)c1ccc(N)c(O)c1 | 91 to 93 |
| Cc1csc(=O)n1CCCC(=O)O | 97 to 99 |
| CCc1ncsc1C(=O)O | 193 to 195 |

| SMILES | melting point [°C] |
| --- | --- |
| COc1cc(Br)ccc1C(N)=O | 134 to 136 |
| CC(C)(C)Cc1cc(N)n(-c2ccccc2)n1 | 95 to 97 |
| Cc1sc(NC(=O)CCl)c(C#N)c1C | 180 to 182 |
| COC(=O)c1ccc(S(=O)(=O)Cl)cc1 | 65 to 70 |
| CNc1ncc(C(=O)O)s1 | 159 to 161 |
| COC(=O)c1cc2c(F)cc(Br)cc2[nH]1 | 190 to 192 |
| Nc1ccc(-c2nc3cc(Br)ccc3s2)cc1 | 189 to 191 |
| CC(C)CN1CCC(C(=O)O)CC1 | 75 to 77 |
| NCc1nnc2n1CCC2 | 20 to 22 |
| Cc1cc(C(=O)O)c(C)n1CC1CC1 | 179 to 181 |
| O=C(O)CNS(=O)(=O)c1ccc(Cl)c(Cl)c1 | 127 to 129 |
| Cc1nn(CC(F)(F)F)c(C)c1C(C)C(=O)O (stereo unspecified) | 130 to 132 |
| N#Cc1cccc(I)c1N | 115 to 117 |
| Cc1cc(Br)ncc1N | 54 to 56 |
| COc1cc(-c2noc(CCl)n2)ccc1OC(F)F | 46 to 50 |
| CC(C)(C)OC(=O)N1CCC(N2CC(O)C2)CC1 | 91 to 93 |
| O=C(O)c1cc(/C=C/c2ccc(F)cc2)nc2ccc(Br)cc12 | 299 to 301 |
| O=C(O)/C=C/c1ccc2c(c1)OCCO2 | 165 to 169 |
| O=C1CCN(S(=O)(=O)c2cccs2)CC1 | 127 to 129 |
| COc1cc(N)c(N)cc1OC | 126 to 128 |
| Cc1cn(CC(=O)O)c2ccccc12 | 175 to 177 |
| Clc1noc(-c2cccs2)n1 | 37 to 39 |
| O=C(O)c1ccc(SC2CC2)cc1 | 156 to 158 |
